# Laboratory results: patent US12030875B2, “EIF4E inhibitors and uses thereof” (PIC Therapeutics, Inc., priority 2018, dated 2024)
# Biological target: T1, Human eIF4E (Homo sapiens, UniProt P06730)
# T1 construct: Human eIF4E (aa 28-217) with a C-terminal His-tag; made in house
# Assay: Human eIF4E/4G2 binding assay (TR-FRET)
# Settings: eIF4E (aa 28-217) with biotin labeled 4G2 peptide
# Protocol: Human eIF4E (aa 28-217) with a C-terminal His-tag was expressed in E. coli in inclusion bodies. The protein was solubilized with 8 M urea and purified under denaturing conditions using nickel-charged HisTrap HP columns (GE Healthcare). The purified protein was then refolded by diluting in 20 mM Hepes pH 7.0, 0.5 M NaCl, 1 mM DTT, 1 mM EDTA, 0.5 M arginine plus 6 M urea, and then dialyzing overnight into the same buffer without the urea. The protein was further dialyzed into 20 mM Hepes, pH 6.5, 50 mM NaCl, 1 mM EDTA, 1 mM DTT, and concentrated using Hitrap SP sepharose FF columns (GE Healthcare). The concentrated protein was dialyzed into 20 mM Hepes, pH 7.0, 0.5M NaCl, 5 mM DTT and 10% glycerol, and stored at −80° C. until use.
# Test compounds (3.43 mM stock in DMSO) were diluted 2-fold in series in DMSO (10 concentration points). Compound solutions (1.2 μl/well) were added into black 384-well polypropylene microplates (Matrix, Thermal Scientific). Twenty-two microliters per well of Assay Buffer (50 mM NaPi, pH 6.5, 50 mM KCl, 1 mM DTT and 0.5 mg/ml gamma globulin) and eight microliters per well of 82.5 nM purified eIF4E in Assay Buffer were added. The samples were incubated at room temperature (20-23° C.) for 15 min. Biotin labeled 4G2 peptide (Ac-Lys-Gln-Tyr-Asp-Arg-Glu-Phe-Leu-Leu-Asp-Phe-Gln-Phe-Met-Pro-Lys(Aha-Bio)-NH2, 1.75 μM stock in DMSO) was diluted to 0.14 μM in Assay Buffer (without DTT) and 5 μl/well was added. The samples were incubated at room temperature for 15 min. Five microliters per well of 6.4 nM Eu-streptavidin (Eu-SA, Perkin Elmer) and 80 nM Allophycocyanin (APC)-anti His antibody (Columbia Biosciences) in Assay Buffer (without DTT) were then added and the samples were incubated at room temperature for 20 min.
# Assay signals were monitored by reading excitation at 340 nm and emission fluorescence at 615 nm and 665 nm on an Envision reader (Perkin Elmer). Normalized TR-FRET (time-resolved fluorescence resonance energy transfer) assay signal (Rn) was calculated by the formula: Rn═[(A−Ba−C×D)/(D−Bd)]×(Dc−Bd) • Where A is the fluorescence intensity of the sample at 665 nm, • D is the fluorescence intensity of the sample at 615 nm, • Ba and Bd are plate backgrounds at 665 nm and 615 nm, respectively, • Dc is the fluorescence intensity of 0.78 nM Eu-SA in the assay buffer at 615 nm • The cross-talk factor (C) is determined by the following formula: C=(Ac−Ba)/(Dc−Bd) • Where Ac is the fluorescence intensity of 0.78 nM Eu-SA in the assay buffer at 665 nm.
# IC50 values were calculated using xLFit program (IDBS).
# T1 sequence (P06730 28-217): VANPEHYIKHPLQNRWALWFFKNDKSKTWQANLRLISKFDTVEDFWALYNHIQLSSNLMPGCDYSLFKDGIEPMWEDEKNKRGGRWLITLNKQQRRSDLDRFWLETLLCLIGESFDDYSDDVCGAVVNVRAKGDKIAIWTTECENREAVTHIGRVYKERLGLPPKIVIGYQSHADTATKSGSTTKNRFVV
row,Structure (SMILES),IC50
1,CC(C)C(CC(=O)O)Nc1nc(-c2ccc(Oc3ccccc3)cc2)c(-c2ccccc2)s1 (stereo not shown) [Compound I-149],5 to 25 µM
2,O=C(O)C1CCCN(c2nc(-c3ccc(Oc4ccccc4)cc3)cs2)C1 (stereo not shown) [Compound I-181],> 25 µM
3,"O=C(O)CCc1nc(-c2ccc(-c3ccc(F)cc3)cc2)c(C(F)(F)F)s1 [Compound I-235, 3-(4-(4′-fluorobiphenyl-4-yl)-5-(trifluoromethyl)-thiazol-2-yl)-propanoic acid]",5 to 25 µM
4,O=C(O)CC1CCCN1c1nc(-c2ccc(Oc3ccccc3)cc2)c(-c2cccc3[nH]ccc23)s1 (stereo not shown) [Compound I-189],5 to 25 µM
5,CC(C)(CNc1nc(-c2ccc(Oc3ccccc3)cc2)cs1)C(=O)O [Compound I-153],> 25 µM
6,CC(CC(=O)O)Nc1nc(-c2ccc(Oc3ccccc3)cc2)c(-c2cccc3[nH]ccc23)s1 (stereo not shown) [Compound I-175],> 25 µM
7,"Cc1nc(N2CCOC(C(=O)O)C2)sc1-c1ccc(-c2ccc(F)cc2)cc1 (stereo not shown) [Compound I-237, 4-(5-(4′-fluorobiphenyl-4-yl)-4-methylthiazol-2-yl) morpholine-2-carboxylic acid]",5 to 25 µM
8,O=C(O)C1(CNc2nc(-c3ccc(-c4ccc(F)cc4)cc3)c(Br)s2)CC1 [Compound I-121],5 to 25 µM
9,"O=C(O)C1CN(c2nc(-c3ccccc3)c(-c3ccc(-c4ccc(F)cc4)cc3)s2)CCO1 (stereo not shown) [Compound I-240, 4-(5-(4′-fluorobiphenyl-4-yl)-4-phenylthiazol-2-yl) morpholine-2-carboxylic acid]",< 5 µM
10,O=C(O)C1CCN(c2nc(-c3ccc(-c4ccc(F)cc4)cc3)c(-c3cccc4[nH]ccc34)s2)C1 (stereo not shown) [Compound I-119],5 to 25 µM
11,O=C(O)C1CN(c2nc(-c3ccc(-c4ccc(F)cc4)cc3)cs2)C1 [Compound I-76],> 25 µM
12,CC(CNc1nc(-c2ccc(-c3ccc(F)cc3)cc2)cs1)C(=O)O (stereo not shown) [Compound I-99],> 25 µM
13,CC(C)(CNc1nc(-c2ccc(-c3ccc(F)cc3)cc2)cs1)C(=O)O [Compound I-70],> 25 µM
14,CCCC(CNc1nc(-c2ccc(Oc3ccccc3)cc2)c(-c2cncnc2)s1)C(=O)O (stereo not shown) [Compound I-169],> 25 µM
15,CC(C)[C@@H](CC(=O)O)Nc1nc(-c2ccc(-c3ccc(F)cc3)cc2)c(Br)s1 [Compound I-221],< 5 µM
16,CC(C)(CC(=O)O)Nc1nc(-c2ccc(Oc3ccccc3)cc2)c(-c2cncnc2)s1 [Compound I-150],> 25 µM
17,O=C(O)C1CCN(c2nc(-c3ccc(Oc4ccccc4)cc3)c(-c3ccccc3)s2)CC1 [Compound I-209],< 5 µM
18,CC(CNc1nc(-c2ccc(Oc3ccccc3)cc2)cs1)C(=O)O (stereo not shown) [Compound I-176],> 25 µM
19,"Cc1sc(N2CCOC(C(=O)O)C2)nc1-c1ccc(-c2ccc(F)cc2)cc1 (stereo not shown) [Compound I-236, 4-(4-(4′-fluorobiphenyl-4-yl)-5-methylthiazol-2-yl) morpholine-2-carboxylic acid]",5 to 25 µM
20,O=C(O)C1CC(CNc2nc(-c3ccc(-c4ccc(F)cc4)cc3)c(-c3cncnc3)s2)C1 (stereo not shown) [Compound I-129],> 25 µM
21,O=C(O)C1CCN(c2nc(-c3ccc(-c4ccc(F)cc4)cc3)c(-c3ccccc3)s2)C1 (stereo not shown) [Compound I-116],< 5 µM
22,CC(CNc1nc(-c2ccc(Oc3ccccc3)cc2)c(-c2cccc3[nH]ccc23)s1)C(=O)O (stereo not shown) [Compound I-180],> 25 µM
23,Cc1nc(N2CCCC(C(=O)O)C2)sc1-c1ccc(-c2ccc(F)cc2)cc1 (stereo not shown) [Compound I-238],5 to 25 µM
24,O=C(O)CC1CCCN1c1nc(-c2ccc(-c3ccc(F)cc3)cc2)cs1 (stereo not shown) [Compound I-110],> 25 µM
25,CC(C)C(CC(=O)O)Nc1nc(-c2ccc(Oc3ccccc3)cc2)c(-c2cccnc2)s1 (stereo not shown) [Compound I-151],> 25 µM
26,CC(C)C(CC(=O)O)Nc1nc(-c2ccc(-c3ccc(F)cc3)cc2)c(Br)s1 (stereo not shown) [Compound I-65],5 to 25 µM

# Results, then the molecule that gave them:
row,IC50,Structure (SMILES)
1,> 25 µM,CC1(C(=O)O)CN(c2nc(-c3ccc(-c4cnco4)cc3)c(-c3ccccc3)s2)C1 [Compound I-13]
2,> 25 µM,CC1(C(=O)O)CN(c2nc(-c3ccc(-c4cnco4)cc3)c(-c3cccnc3)s2)C1 [Compound I-15]
3,> 25 µM,O=C(O)C1(CNc2nc(-c3ccc(-c4ccc(F)cc4)cc3)c(-c3cncnc3)s2)CC1 [Compound I-123]
4,5 to 25 µM,O=C(O)C1CN(c2nc(-c3ccc(-c4ccc(F)cc4)cc3)c(-c3ccccc3)s2)C1 [Compound I-77]
5,> 25 µM,CC(C)(CNc1nc(-c2ccc(-c3cnco3)cc2)c(-c2cncnc2)s1)C(=O)O [Compound I-6]
6,> 25 µM,O=C(O)C1CC(CNc2nc(-c3ccc(-c4ccc(F)cc4)cc3)c(-c3cccnc3)s2)C1 (stereo not shown) [Compound I-130]
7,> 25 µM,CC(CC(=O)O)Nc1nc(-c2ccc(-c3cnco3)cc2)c(-c2cccnc2)s1 (stereo not shown) [Compound I-24]
8,> 25 µM,CC(CNc1nc(-c2cncnc2)c(-c2ccc(-c3ccc(F)cc3)cc2)s1)C(=O)O (stereo not shown) [Compound I-102]
9,> 25 µM,CC(CC(=O)O)Nc1nc(-c2ccc(-c3cnco3)cc2)c(-c2cccc3[nH]ccc23)s1 (stereo not shown) [Compound I-25]
10,> 25 µM,CCCC(CNc1nc(-c2ccc(-c3ccc(F)cc3)cc2)c(-c2cccnc2)s1)C(=O)O (stereo not shown) [Compound I-91]
11,> 25 µM,O=C(O)C1(CNc2nc(-c3ccc(-c4cnco4)cc3)c(-c3cncnc3)s2)CC1 [Compound I-45]
12,> 25 µM,O=C(O)C1(CNc2nc(-c3ccc(Oc4ccccc4)cc3)c(-c3cccnc3)s2)CC1 [Compound I-198]
13,> 25 µM,CC(CNc1nc(-c2ccc(-c3ccc(F)cc3)cc2)c(-c2cccnc2)s1)C(=O)O (stereo not shown) [Compound I-103]
14,> 25 µM,CC1(C(=O)O)CCCN(c2nc(-c3ccc(-c4cnco4)cc3)c(-c3cccnc3)s2)C1 (stereo not shown) [Compound I-62]
15,> 25 µM,O=C(O)C1CCCN(c2nc(-c3ccc(-c4cnco4)cc3)c(-c3cccc4[nH]ccc34)s2)C1 (stereo not shown) [Compound I-34]
16,5 to 25 µM,CC1(C(=O)O)CN(c2nc(-c3ccc(Oc4ccccc4)cc3)c(-c3ccccc3)s2)C1 [Compound I-163]

row,IC50,Structure (SMILES)
1,> 25 µM,O=C(O)C1CCCN(c2nc(-c3ccc(Oc4ccccc4)cc3)c(-c3cccnc3)s2)C1 (stereo not shown) [Compound I-184]
2,> 25 µM,CCCC(CNc1nc(-c2cncnc2)c(-c2ccc(-c3cnco3)cc2)s1)C(=O)O (stereo not shown) [Compound I-19]
3,> 25 µM,O=C(O)CC1CCCN1c1nc(-c2ccc(-c3ccc(F)cc3)cc2)c(-c2cccnc2)s1 (stereo not shown) [Compound I-113]
4,> 25 µM,O=C(O)C1CCCN(c2nc(-c3ccc(Oc4ccccc4)cc3)c(-c3cncnc3)s2)C1 (stereo not shown) [Compound I-183]
5,> 25 µM,CC(C)C(CC(=O)O)Nc1nc(-c2cccnc2)c(-c2ccc(-c3cnco3)cc2)s1 (stereo not shown) [Compound I-3]
6,> 25 µM,CC(CNc1nc(-c2ccc(-c3cnco3)cc2)c(-c2cncnc2)s1)C(=O)O (stereo not shown) [Compound I-28]
7,> 25 µM,CC(CC(=O)O)Nc1nc(-c2ccc(Oc3ccccc3)cc2)c(-c2cccnc2)s1 (stereo not shown) [Compound I-174]
8,5 to 25 µM,O=C(O)C1CCN(c2nc(-c3ccc(-c4ccc(F)cc4)cc3)c(-c3cccnc3)s2)CC1 [Compound I-138]
9,< 5 µM,CC1(C(=O)O)CCCN(c2nc(-c3ccc(-c4ccc(F)cc4)cc3)c(-c3cccc4[nH]ccc34)s2)C1 (stereo not shown) [Compound I-147]
10,> 25 µM,CC1(C(=O)O)CCCN(c2nc(-c3ccc(-c4cnco4)cc3)c(-c3cccc4[nH]ccc34)s2)C1 (stereo not shown) [Compound I-63]
11,> 25 µM,O=C(O)C1CCCN(c2nc(-c3ccc(-c4cnco4)cc3)c(-c3cncnc3)s2)C1 (stereo not shown) [Compound I-32]
12,> 25 µM,O=C(O)C1(CNc2nc(-c3ccc(-c4cnco4)cc3)c(-c3cccc4[nH]ccc34)s2)CC1 [Compound I-47]
13,> 25 µM,O=C(O)C1CN(c2nc(-c3ccc(-c4ccc(F)cc4)cc3)c(-c3cccnc3)s2)CCO1 (stereo not shown) [Compound I-142]
14,> 25 µM,O=C(O)CC1CCCN1c1nc(-c2ccc(-c3cnco3)cc2)c(-c2ccccc2)s1 (stereo not shown) [Compound I-36]
15,> 25 µM,CC(C)C(CC(=O)O)Nc1nc(-c2ccc(-c3cnco3)cc2)c(-c2cccc3[nH]ccc23)s1 (stereo not shown) [Compound I-4]
16,> 25 µM,O=C(O)C1CN(c2nc(-c3ccc(-c4ccc(F)cc4)cc3)c(-c3cncnc3)s2)CCO1 (stereo not shown) [Compound I-141]
